Test results from patent publication US20030166922A1, “Novel cephalosporin compounds and process for preparing the same” (priority 2000, published 2003).
≈ marks a conversion by molar mass, not a printed value.

What was measured:
Experiment in all cases: Minimum Inhibitory Concentration (MIC), agar dilution, standard strains
E. faecalis EFS004 = type: cell-based; conditions: Table 2; Mueller-Hinton agar, 37° C., 20 hours
S. epidermidis R005 = type: cell-based; conditions: for Minimum Inhibitory Concentration (MIC), S. epidermidis R005: Table 2, Mueller-Hinton agar, 37° C., 20 hours
[1] = system: Staphylococcus aureus giorgio; type: cell-based; conditions: for Minimum Inhibitory Concentration (MIC), S. aureus giorgio: Table 2, Mueller-Hinton agar, 37° C., 20 hours
S. aureus 77 = type: cell-based, Staphylococcus aureus; conditions: for Minimum Inhibitory Concentration (MIC), S. aureus 77: Table 2, Mueller-Hinton agar, 37° C., 20 hours
S. aureus K311 = type: cell-based, Staphylococcus aureus; conditions: Table 2; Mueller-Hinton agar, 37° C., 20 hours
E. faecalis L239 = type: cell-based; conditions: Enterococcus faecalis, L239, 20 h, read-out: Minimum Inhibitory Concentration (MIC), E. faecalis L239
S. aureus 241 = type: cell-based, Staphylococcus aureus; conditions: Staphylococcus aureus, 241, 20 h, read-out: Minimum Inhibitory Concentration (MIC), S. aureus 241

Row | SMILES | Minimum Inhibitory Concentration (MIC), E. faecalis EFS004 (E. faecalis EFS004) | Minimum Inhibitory Concentration (MIC), S. epidermidis R005 (S. epidermidis R005) | Minimum Inhibitory Concentration (MIC), S. aureus giorgio [1] | Minimum Inhibitory Concentration (MIC), S. aureus 77 (S. aureus 77) | Minimum Inhibitory Concentration (MIC), S. aureus K311 (S. aureus K311) | MIC (E. faecalis L239) | MIC (S. epidermidis R005; Staphylococcus epidermidis, R005, 20 h, read-out: Minimum Inhibitory Concentration (MIC), S. epidermidis R005) | MIC ([1]; Staphylococcus aureus, 20 h, read-out: Minimum Inhibitory Concentration (MIC), Staphylococcus aureus giorgio) | MIC (S. aureus 241) | MIC (S. aureus 77; Staphylococcus aureus, 77, 20 h, read-out: Minimum Inhibitory Concentration (MIC), S. aureus 77)
1 | C[n+]1c(SCSC2=C(C(=O)O)N3C(=O)[C@@H](NC(=O)CSc4cc(Cl)nc(Cl)c4)[C@H]3SC2)cc(N)nc1N [Example I-33, 2,4-diamino-6-[({[(6R,7R)-2-carboxy-7-({2-[(2,6-dichloro-4-pyridinyl)sulf-anyl]acetyl}amino)-8-oxo-5-thia-1-azabicyclo[4.2.0]oct-2-en-3-yl]sulfanyl}methyl)sulfan-yl]-1-methylp yrimidin-1-ium] | 0.5 :g/ml | 0.25 :g/ml | 0.031 :g/ml | 0.25 :g/ml | 1 :g/ml | – | – | – | – | –
2 | CN[C@H](CC(C)C)C(=O)N[C@H]1C(=O)N[C@@H](CC(N)=O)C(=O)N[C@H]2C(=O)N[C@H]3C(=O)N[C@H](C(=O)N[C@H](C(=O)O)c4cc(O)cc(O)c4-c4cc3ccc4O)[C@H](O)c3ccc(c(Cl)c3)Oc3cc2cc(c3O[C@@H]2O[C@H](CO)[C@@H](O)[C@H](O)[C@H]2O[C@H]2C[C@](C)(N)[C@H](O)[C@H](C)O2)Oc2ccc(cc2Cl)[C@H]1O [Vancomycin, vancomycin, reference compound] | 2 :g/ml | 1 :g/ml | 1 :g/ml | 1 :g/ml | 2 :g/ml | 2 µg/mL (≈ 1.38 µM) | 1 µg/mL (≈ 0.69 µM) | 1 µg/mL (≈ 0.69 µM) | 2 µg/mL (≈ 1.38 µM) | 1 µg/mL (≈ 0.69 µM)
